From patent US20090171105A1 (priority 2006, published 2009)

Legend:
connective tissue = assay: oxidation-reduction processes and metabolism in connective tissue
[1] = tested on: T-cellular part of immunity; assay: immunomodulating activity
[2] = biological target: (Homo sapiens, UniProt P49354+P49356); assay: inhibition of RAS-oncoprotein farnesylation; type: biochemical
[3] = tested on: alveolar mucous cancer of liver PC-1; assay: antitumor activity on experimental tumor strains; type: in vivo; conditions: alveolar mucous cancer of liver PC-1 of rats; intraperitoneal and intratumoral introduction, MTD
sarcoma 37 = assay: antitumor activity on experimental tumor strains; type: in vivo; conditions: intraperitoneal and intratumoral introduction, MTD
RAS-genes = assay: expression of RAS-genes; type: cell-based
[4] = tested on: interweave tumors, resistant to prospidine, rubomicine and sarcolyzine; assay: efficiency on drug-resistant interweave tumors; type: in vivo
[5] = tested on: mamma adenocarcinoma Ca-755; assay: antitumor activity on experimental tumor strains; type: in vivo; conditions: intraperitoneal and intratumoral introduction, MTD
tumor cells = assay: ATP content and apoptosis of tumor cells; type: cell-based
[6] = tested on: lymphocytic leukemia P-388; assay: antitumor activity on experimental tumor strains; type: in vivo; conditions: intraperitoneal and intratumoral introduction, MTD
lung carcinoma = assay: antitumor activity on experimental tumor strains; type: in vivo; conditions: intraperitoneal and intratumoral introduction, MTD
Walker carcinosarcoma = assay: antitumor activity on experimental tumor strains; type: in vivo; conditions: intraperitoneal and intratumoral introduction, MTD
sarcoma M-I = assay: antitumor activity on experimental tumor strains; type: in vivo; conditions: intraperitoneal and intratumoral introduction, MTD
lymphoid leukemia L-1210 = assay: antitumor activity on experimental tumor strains; type: in vivo; conditions: intraperitoneal and intratumoral introduction, MTD
Ehrlich's solid tumor = assay: antitumor activity on experimental tumor strains; type: in vivo; conditions: intraperitoneal and intratumoral introduction, MTD

Sequence of (Homo sapiens, UniProt P49354+P49356) (P49356 whole entry, one chain of several): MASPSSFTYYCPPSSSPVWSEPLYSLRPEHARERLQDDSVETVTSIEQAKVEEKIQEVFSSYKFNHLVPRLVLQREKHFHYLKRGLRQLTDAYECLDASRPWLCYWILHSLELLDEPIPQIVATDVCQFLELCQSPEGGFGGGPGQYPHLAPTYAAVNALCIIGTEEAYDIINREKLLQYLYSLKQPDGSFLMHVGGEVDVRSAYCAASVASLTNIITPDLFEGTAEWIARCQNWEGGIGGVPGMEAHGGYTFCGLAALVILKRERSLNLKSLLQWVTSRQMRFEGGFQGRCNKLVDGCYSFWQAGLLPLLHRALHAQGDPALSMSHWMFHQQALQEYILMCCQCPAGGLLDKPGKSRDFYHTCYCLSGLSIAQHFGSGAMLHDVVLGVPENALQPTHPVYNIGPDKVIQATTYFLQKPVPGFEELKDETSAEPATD

1(10)β-epoxy-13-dimethylamino-5,7α,6,11β(H)-guaia-3(4)-en-6,12-olide hydrochloride [Arglabin]
oxidation-reduction processes and metabolism in a connective tissue (connective tissue): has ability to optimize oxidation-reduction processes and a metabolism in a connective tissue
correction of immunodepressive effect of cytostatic [1]: has a property to correct immunodepressive effect of cytostatic cells
immunomodulating activity ([1]; depends on dose): shows primary influence on the T-cellular part of immunity
inhibition of RAS-oncoproteins pharnesilis [2]: competitive inhibitor
sensitivity of tumor strain [3]: sensitive
sensitivity of tumor strain (sarcoma 37): sensitive
expression of RAS-genes (RAS-genes): reduces
efficiency in relation to resistant interweave tumors [4]: shows efficiency
sensitivity of tumor strain [5]: sensitive
ATP content (tumor cells): reduces
tumor cells apoptosis (tumor cells): invokes tumor cells apoptosis
sensitivity of tumor strain [6]: sensitive
sensitivity of tumor strain (lung carcinoma): sensitive
sensitivity of tumor strain (Walker carcinosarcoma): sensitive
sensitivity of tumor strain (sarcoma M-I): sensitive
sensitivity of tumor strain (lymphoid leukemia L-1210): sensitive
sensitivity of tumor strain (Ehrlich's solid tumor): sensitive
